Molecules are shown by their SMILES.

The record followed here is patent US12692232B2, “Indole carboxamide compound, preparation therefor and use thereof” (NANJING RUISHUNING MEDICAL TECHNOLOGY CO., LTD., priority 2021, dated 2026).

Test [1] deals with H22 liver subcutaneous transplanted tumor. Put plainly: Mouse model of H22 liver subcutaneous transplanted tumor. It is filed as in vivo. How it is done:
The method was as follows:
Experimental procedure: H22 hepatoma cell suspension was adjusted to 1×10^7/mL after dilution and counting with normal saline, and 0.2 mL per mouse was inoculated on the back of the mice. After 24 hours, the mice were weighed and administered drug at a dose of 0.1 mL/10 g once a day, wherein the mice in the solvent control group and the treatment groups were administered 0.9% sodium chloride solution and the compound of the present invention, respectively, for 14 days, and the mice in the CTX group were injected intraperitoneally for 14 days. The mice were weighed after 14 days. The animals were executed and the tumor blocks were removed and weighed separately. The tumor inhibition rate was calculated according to the following formula: tumor inhibition rate (%)=(1−average tumor weight in a treatment group/average tumor weight in the solvent control group)×100%.

The target in another test is T1, TRPC6 channel (Homo sapiens, UniProt Q9Y210).
T1 sequence (Q9Y210 1-931): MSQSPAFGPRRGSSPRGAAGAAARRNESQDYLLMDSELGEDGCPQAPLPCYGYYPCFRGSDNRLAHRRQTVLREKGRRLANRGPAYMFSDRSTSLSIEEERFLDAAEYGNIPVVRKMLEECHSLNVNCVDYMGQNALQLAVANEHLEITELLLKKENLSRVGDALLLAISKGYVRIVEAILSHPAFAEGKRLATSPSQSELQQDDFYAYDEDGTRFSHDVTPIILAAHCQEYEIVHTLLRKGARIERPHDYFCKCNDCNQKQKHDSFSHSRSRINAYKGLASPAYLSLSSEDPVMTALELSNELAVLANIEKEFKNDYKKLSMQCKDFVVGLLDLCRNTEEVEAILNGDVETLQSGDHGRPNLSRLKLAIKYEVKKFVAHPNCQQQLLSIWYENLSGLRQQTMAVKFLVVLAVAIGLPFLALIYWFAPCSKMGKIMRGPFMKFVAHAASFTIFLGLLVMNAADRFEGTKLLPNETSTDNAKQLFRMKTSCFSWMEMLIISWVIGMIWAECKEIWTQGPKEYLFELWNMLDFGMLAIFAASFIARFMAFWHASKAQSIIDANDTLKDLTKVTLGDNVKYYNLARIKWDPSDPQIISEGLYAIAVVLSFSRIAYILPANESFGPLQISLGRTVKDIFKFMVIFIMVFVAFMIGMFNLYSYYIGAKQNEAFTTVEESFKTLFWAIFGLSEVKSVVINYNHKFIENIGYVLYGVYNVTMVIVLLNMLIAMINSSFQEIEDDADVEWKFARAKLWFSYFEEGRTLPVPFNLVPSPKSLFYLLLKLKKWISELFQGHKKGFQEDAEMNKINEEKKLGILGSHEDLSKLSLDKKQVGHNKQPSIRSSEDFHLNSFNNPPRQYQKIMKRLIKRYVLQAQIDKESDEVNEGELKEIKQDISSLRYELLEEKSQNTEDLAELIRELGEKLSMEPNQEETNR
In words: Inhibition of TRPC6 channel-mediated Ca2+ entry in HEK293hTRPC6 cells (Fura-2/AM, single concentration). Conditions: compound 80 μM, OAG 80 μM; for inhibition at 80 µM: read-out: inhibition of Ca2+ entry into the cells via TRPC6 channels compared with the solvent control group. It is filed as cell-based. Also on record: expressed in transfected cells; host or cells: HEK293 (lentiviral transduction, puromycin selection). How it is done: The inhibitory effect of the compounds of the present invention (as exemplified by Compound 1-1 obtained in Example 1) on TRPC6 channel-mediated Ca^2+ entry was determined using HEK293hTRPC6 as a tool cell overexpressing TRPC6 protein. The method was as follows:
Establishment of HEK293hTRPC6, a tool cell overexpressing TRPC6 protein: human embryonic kidney cells HEK293 were placed in DMEM culture medium (containing 10% inactivated fetal bovine serum, 100 U-mL^−1 penicillin, and 100 mg-L^−1 streptomycin) and cultured at 37° C. in a 5% CO2 incubator. Cells in the logarithmic growth phase were harvested at 50% and incubated with 25 μL of LV105-TRPC6 lentiviral particle suspension for 24 hours, and then the medium was changed. The experiment included a negative control group (no-load lentivirus) and a blank control group. The medium containing 2 μg/mL puromycin was changed after 48 h of infection until the cells in the blank group died. Western Blot assay was performed to detect the expression of TRPC6 protein in the cells to verify the successful construction of HEK293hTRPC6 cell.
Determination of the effect of the compounds on changes in intracellular calcium ion concentration ([Ca^2+]i) in HEK293hTRPC6 cells: HEK293hTRPC6 cell suspension was added to a 24-well plate with a coverslip and incubated at 37° C. in a 5% CO2 incubator for 24 h. The cell crawls were then removed and placed in the fluorescent dye Fura-2/AM, and incubated for 20 min at room temperature away from light. The slides were placed in the center of the bath, perfused with calcium-free Tyrode's solution for 5 min and fixed on the stage of an inverted fluorescence microscope. […] Fluorescence intensity was measured at different excitation wavelengths (340 nm, 380 nm) using a TILL Ion Imaging system (TILLvisION), and the value of fluorescence intensity emitted by intracellular fluorescent probe at different excitation wavelengths was substituted into the formula: [Ca^2+]i=Kd×β×(R−Rmin)/[…]. In the formula, R represents the experimentally determined fluorescence ratio (F340/F380); Kd represents the dissociation constant for the reaction of Fura-2/AM with Ca^2+, which is 386 nmol/L under physiological conditions; Rmax represents the F340/F380 when Ca^2+ is saturated (all Fura-2/AM is bound to Ca^2+); Rmin represents the F340/F380 when there is no Ca^2+; and β represents the ratio of fluorescence intensities at 380 nm in the absence of Ca^2+ and when Ca^2+ is saturated.
Experimental results: the amount of TRPC6-mediated Ca^2+ entry under conditions of open TRPC6 channels and the presence of extracellular Ca^2+ was measured, and the actual biological activity of the compounds was assessed by comparison with the solvent control.

Consider `Cn1c(C(=O)NCCC(=O)O)cc2ccccc21` [3-[(1-methyl-1H-indole-2-carbonyl)amino]propionic acid, reference compound], for which the tumor inhibition rate in test [1] (25 mg/kg once a day 14 days) was determined as 52.8%. Further, at TRPC6 channel, the “amount of TRPC6-mediated Ca2+ entry” value worked out at 0.10±0.01 and the inhibition at 80 µM was 53.9%.
On to `CC(=O)OCCCNC(=O)c1c(C=O)c2ccccc2n1C` [compound 1-1, propyl 3-[(3-formyl-1-methyl-1H-indole-2-carbonyl)amino]acetate], for which the tumor inhibition rate in test [1] (25 mg/kg once a day 14 days) is given as 60.5%. Besides, the tumor inhibition rate in test [1] (50 mg/kg once a day 14 days) was 69.4%. For the same compound, at TRPC6 channel, the “amount of TRPC6-mediated Ca2+ entry” value turned out to be 0.06±0.01 and the inhibition at 80 µM was found to be 79.9%.

A word on the inhibition: it is how much of the control response was suppressed.
